Holding throughout (assay type): biochemical
One assay has as its target T1, human KDR enzyme (Homo sapiens, UniProt P35968).
T1 construct: The cytoplasmic domain of the human KDR enzyme was cloned in the form of a GST fusion; GST; made in house; host or cells: SF21 insect cells (baculovirus, pFastBac)
Briefly: KDR substrate phosphorylation assay (scintillation, 96-well plate). To be noted: cytoplasmic domain of human KDR as GST fusion, 2 μM cold ATP, 1 hour at 37° C. On the procedure:
2. KDR The inhibitory effect of the compounds is determined in an assay of substrate phosphorylation by the KDR enzyme in vitro using a scintillation technique (96-well plate, NEN). The cytoplasmic domain of the human KDR enzyme was cloned in the form of a GST fusion into the baculovirus expression vector pFastBac. The protein was expressed in SF21 cells and purified to approximately 60% homogeneity. The kinase activity of KDR is measured in 20 mM MOPS, 10 mM MgCl2, 10 mM MnCl2, 1 mM DTT, 2.5 mM EGTA and 10 mM b-glycerophosphate, pH=7.2, in the presence of 10 mM MgCl2, 100 μM Na3VO4 and 1 mM NaF. 10 μl of the compound are added to 70 μl of kinase buffer containing 100 ng of KDR enzyme at 4° C. The reaction is initiated by adding 20 μl of solution containing 2 μg of substrate (SH2-SH3 fragment of PLCγ expressed in the form of a GST fusion protein), 2 μCi γ^33P[ATP] and 2 μM cold ATP. After incubation for 1 hour at 37° C., the reaction is stopped by adding 1 volume (100 μl) of 200 mM EDTA. The incubation buffer is removed, and the wells are washed three times with 300 μl of PBS. The radioactivity is measured in each well using a Top Count NXT radioactivity counter (Packard). The background noise is determined by measuring the radioactivity in four different wells containing radioactive ATP and the substrate alone. A total activity control is measured in four different wells containing all the reactants (γ^33P-[ATP], KDR and PLCγ substrate) but in the absence of compound. The inhibition of the KDR activity with the compound of the invention is expressed as percentage inhibition of the control activity determined in the absence of compound. The compound SU5614 (Calbiochem) (1 μM) is included in each plate as an inhibition control.

A further assay has as its target T2, human Tie2 (Homo sapiens, UniProt Q02763).
T2 construct: corresponding to the intracellular domain amino acids 776-1124 was generated by PCR; made in house; host or cells: baculovirus expression (pFastBacGT)
The assay is described as follows: Tie2 PLC phosphorylation assay (GST-Tie2, FlashPlate). Conditions: GST-Tie2 intracellular domain, 2 μM cold ATP, 1 hour at 37° C.; read-out: IC 50 Tie2. On the procedure:
The human Tie2 coding sequence corresponding to the intracellular domain amino acids 776-1124 was generated by PCR using the cDNA isolated from human placenta as model. This sequence was introduced into a baculovirus expression vector pFastBacGT in the form of a GST fusion protein.
The inhibitory effect of the molecules is determined in an assay of PLC phosphorylation by Tie2 in the presence of GST-Tie2 purified to approximately 80% of homogeneity. The substrate is composed of the SH2-SH3 fragments of PLC expressed in the form of a GST fusion protein.
The kinase activity of Tie2 is measured in a 20 mM MOPS buffer, pH 7.2, containing 10 mM MgCl2, 10 mM MnCl2, 1 mM DTT and 10 mM of glycerophosphate. In a FlashPlate 96-well plate kept on ice, a reaction mixture composed of 70 μl of kinase buffer containing 100 ng of GST-Tie2 enzyme is deposited per well. 10 μl of the test molecule diluted, in DMSO, to a concentration of at most 10% are subsequently added. For a given concentration, each measurement is carried out in quadruplicate. The reaction is initiated by adding 20 μl of solution containing 2 μg of GST-PLC, 2 μM of cold ATP and 1 μCi of ^33P[ATP]. After incubation for 1 hour at 37° C., the reaction is stopped by adding 1 volume (100 μl) of EDTA at 200 mM. After removal of the incubation buffer, the wells are washed three times with 300 μl of PBS. The radioactivity is measured on a Wallac MicroBeta1450.
The inhibition of the Tie2 activity is calculated and expressed as percentage inhibition relative to the control activity determined in the absence of compound.

For the next assay, the target named is T3, human FAK (Homo sapiens, UniProt Q05397).
T3 construct: The complete cDNA of human FAK, the N-terminal end of which had been labelled with histidine; made in house; host or cells: baculovirus expression (pFastBac HTc)
The assay is described as follows: FAK autophosphorylation time resolved fluorescence assay (HTRF). Conditions: 15 μM ATP, 1 hour at 37° C. On the procedure:
Determination of the Activity of the Compounds—Experimental Protocols 1. FAK
The inhibitory activity of the compounds on FAK is determined by measuring the inhibition of autophosphorylation of the enzyme using a time resolved fluorescence assay (HTRF).
The complete cDNA of human FAK, the N-terminal end of which had been labelled with histidine, was cloned into a baculovirus expression vector pFastBac HTc. The protein was expressed and purified to approximately 70% homogeneity.
The kinase activity is determined by incubating the enzyme (6.6 μg/ml) with various concentrations of test compound in a 50 mM Hepes buffer, pH=7.2, containing 10 mM MgCl2, 100 μM Na3VO4, and 15 μM of ATP for 1 hour at 37° C. […] The XL-665-specific long-lasting signal is measured in a Packard Discovery plate counter. All the assays were carried out in duplicate and the mean of the two assays is calculated. The inhibition of the FAK autophosphorylation activity with compounds of the invention is expressed as percentage inhibition relative to a control, the activity of which is measured in the absence of test compound. […]

Structures are written as SMILES. Structures can show the parent of a compound that is named as a salt.

T2 sequence (Q02763 776-1124): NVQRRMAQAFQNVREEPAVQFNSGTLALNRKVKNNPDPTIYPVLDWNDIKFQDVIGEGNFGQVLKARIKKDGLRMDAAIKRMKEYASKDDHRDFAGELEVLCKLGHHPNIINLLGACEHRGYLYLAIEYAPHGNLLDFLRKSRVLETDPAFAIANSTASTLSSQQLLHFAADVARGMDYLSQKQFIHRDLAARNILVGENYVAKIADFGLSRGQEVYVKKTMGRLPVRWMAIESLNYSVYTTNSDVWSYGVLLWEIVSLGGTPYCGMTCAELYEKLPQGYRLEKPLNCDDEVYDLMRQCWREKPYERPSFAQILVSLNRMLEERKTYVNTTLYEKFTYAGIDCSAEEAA
T1 sequence (P35968 786-1356 limits assumed): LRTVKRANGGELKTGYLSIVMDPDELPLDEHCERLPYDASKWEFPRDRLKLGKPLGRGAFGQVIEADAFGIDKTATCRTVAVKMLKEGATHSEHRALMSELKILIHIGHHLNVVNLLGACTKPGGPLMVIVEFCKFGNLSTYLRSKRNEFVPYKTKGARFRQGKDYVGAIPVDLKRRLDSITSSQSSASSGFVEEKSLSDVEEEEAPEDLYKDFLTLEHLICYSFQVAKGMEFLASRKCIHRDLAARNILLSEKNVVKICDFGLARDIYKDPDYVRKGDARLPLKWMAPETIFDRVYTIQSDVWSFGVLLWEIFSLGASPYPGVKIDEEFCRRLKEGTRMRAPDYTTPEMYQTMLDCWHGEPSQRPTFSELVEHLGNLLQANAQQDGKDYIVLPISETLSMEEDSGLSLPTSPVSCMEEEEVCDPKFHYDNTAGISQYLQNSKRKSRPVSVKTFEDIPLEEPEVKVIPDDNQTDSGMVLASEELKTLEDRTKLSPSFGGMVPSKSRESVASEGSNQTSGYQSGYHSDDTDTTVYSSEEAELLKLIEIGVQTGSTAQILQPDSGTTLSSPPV
T3 sequence (Q05397 whole entry): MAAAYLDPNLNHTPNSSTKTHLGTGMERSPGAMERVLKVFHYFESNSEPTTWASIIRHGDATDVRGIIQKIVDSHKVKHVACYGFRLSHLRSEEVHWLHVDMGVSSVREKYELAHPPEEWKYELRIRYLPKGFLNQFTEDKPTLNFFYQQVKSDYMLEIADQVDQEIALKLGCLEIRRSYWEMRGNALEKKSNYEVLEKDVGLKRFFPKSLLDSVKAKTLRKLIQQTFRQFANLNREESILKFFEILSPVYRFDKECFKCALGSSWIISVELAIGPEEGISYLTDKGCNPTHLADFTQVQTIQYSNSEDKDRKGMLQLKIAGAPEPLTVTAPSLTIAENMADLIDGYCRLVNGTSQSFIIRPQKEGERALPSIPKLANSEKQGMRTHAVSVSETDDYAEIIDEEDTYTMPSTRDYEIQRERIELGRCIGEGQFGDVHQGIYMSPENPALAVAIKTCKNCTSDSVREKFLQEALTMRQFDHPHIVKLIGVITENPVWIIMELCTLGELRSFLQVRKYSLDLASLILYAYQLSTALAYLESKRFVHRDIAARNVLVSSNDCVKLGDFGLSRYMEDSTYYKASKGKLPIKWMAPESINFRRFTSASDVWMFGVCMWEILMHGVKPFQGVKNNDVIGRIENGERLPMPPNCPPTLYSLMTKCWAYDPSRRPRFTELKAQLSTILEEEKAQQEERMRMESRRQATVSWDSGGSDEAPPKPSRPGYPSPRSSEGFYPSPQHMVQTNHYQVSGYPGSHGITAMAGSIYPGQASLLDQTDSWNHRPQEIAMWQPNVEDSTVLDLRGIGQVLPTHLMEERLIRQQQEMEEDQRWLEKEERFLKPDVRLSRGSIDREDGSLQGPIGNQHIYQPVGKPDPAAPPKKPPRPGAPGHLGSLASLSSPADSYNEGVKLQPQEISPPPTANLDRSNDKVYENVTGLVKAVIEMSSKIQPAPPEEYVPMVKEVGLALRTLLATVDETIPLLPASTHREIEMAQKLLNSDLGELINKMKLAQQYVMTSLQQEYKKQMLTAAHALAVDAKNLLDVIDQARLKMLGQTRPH

With `Nc1n[nH]c2nc(-c3ccc(NC(=O)Nc4cc(C(F)(F)F)ccc4F)cc3)ccc12` [Example 1, 1-[4-(3-Amino-1H-pyrazolo[3,4-b]pyridin-6-yl)phenyl]-3-(2-fluoro-5-trifluoromethylphenyl)urea], the values for the IC50 against human KDR enzyme and on human Tie2 were 0.119 µM and 0.192 µM, respectively.

Take `O=C(Nc1ccc(-c2ccc3c(NC(=O)c4ccsc4)n[nH]c3n2)cc1)Nc1cc(C(F)(F)F)ccc1F` [Example 2, Thiophene-3-carboxylic acid (6-{4-[3-(2-fluoro-5-trifluoromethylphenyl)ureido]phenyl}-1H-pyrazolo[3,4-b]pyridin-3-yl)amide]: the values for the IC50 at human KDR enzyme and at human Tie2 were 0.006 µM and 0.007 µM, respectively.

Take `Nc1n[nH]c2nc(-c3ccc(NS(=O)(=O)c4cccc(Cl)c4Cl)cc3)ccc12` [Example 3, N-[4-(3-Amino-1H-pyrazolo[3,4-b]pyridin-6-yl)phenyl]-2,3-dichlorobenzenesulphonamide]: the IC50 at human Tie2 was found to be 0.075 µM.

As for `O=C(Nc1ncc(-c2cc(C(=O)NCCN3CCOCC3)c3cn[nH]c3n2)s1)Nc1cc(C(F)(F)F)ccc1F` [Example 4, 6-{2-[3-(2-Fluoro-5-trifluoromethylphenyl)ureido]thiazol-5-yl}-1H-pyrazolo[3,4-b]pyridine-4-carboxylic acid (2-morpholin-4-ylethyl)amide trifluoroacetate], the IC50 at human KDR enzyme was found to be 0.083 µM; on human Tie2, 0.001 µM; at human FAK it was 0.343 µM.

For the compound `CNC(=O)c1cc(-c2ccc(NS(=O)(=O)c3cccc(Cl)c3Cl)cc2)nc2[nH]ncc12` [Example 5], the IC50 on human Tie2 came out at 0.013 µM.

For `O=C(Nc1ccccc1)Nc1ncc(-c2cc(C(=O)NCCN3CCOCC3)c3cn[nH]c3n2)s1` [Example 9], the IC50 was found to be 6.82 µM against human KDR enzyme and 0.443 µM at human Tie2.

Consider `CNC(=O)c1cc(-c2cnc(NC(=O)Nc3cc(C(F)(F)F)ccc3F)s2)nc2[nH]ncc12` [Example 11], for which the IC50 against human KDR enzyme came out at 0.581 µM; at human Tie2, 0.008 µM; at human FAK, 0.927 µM.

Turning to `CN(C)CCNC(=O)c1cc(-c2cnc(NC(=O)Nc3cc(C(F)(F)F)ccc3F)s2)nc2[nH]ncc12` [Example 12], the figures for the IC50 at human KDR enzyme and on human Tie2 were 2.36 µM and 0.03 µM, respectively.

As for `CN(C)CC(C)(C)CNC(=O)c1cc(-c2cnc(NC(=O)Nc3cc(C(F)(F)F)ccc3F)s2)nc2[nH]ncc12` [Example 13], the IC50 on human KDR enzyme was determined as 0.373 µM; on human Tie2 it was 0.004 µM.

Take `O=C(Nc1ncc(-c2cc(C(=O)NCCc3cnc[nH]3)c3cn[nH]c3n2)s1)Nc1cc(C(F)(F)F)ccc1F` [Example 14]: the results for the IC50 against human KDR enzyme and on human Tie2 were 0.293 µM and 0.007 µM, respectively.

Turning to `O=C(Nc1ncc(-c2cc(C(=O)N3CCOCC3)c3cn[nH]c3n2)s1)Nc1cc(C(F)(F)F)ccc1F` [Example 15], the IC50 on human KDR enzyme was determined as 0.07 µM; on human Tie2 it was 0.002 µM.

As for `O=C(Nc1ncc(-c2cc(C(=O)N3CCNCC3)c3cn[nH]c3n2)s1)Nc1cc(C(F)(F)F)ccc1F` [Example 16], the IC50 was 0.2 µM against human KDR enzyme and 0.007 µM at human Tie2.

Turning to `CN1CCN(C(=O)c2cc(-c3cnc(NC(=O)Nc4cc(C(F)(F)F)ccc4F)s3)nc3[nH]ncc23)CC1` [Example 17], the IC50 against human KDR enzyme came out at 0.046 µM; at human Tie2 it was 0.001 µM.

In the case of `CNC(=O)c1cc(-c2ccc(NC(=O)Nc3cc(C(F)(F)F)ccc3F)nc2)nc2[nH]ncc12` [Example 20], the IC50 at human Tie2 came to 0.777 µM.

`O=C(Nc1ccc(-c2cc(C(=O)NCCN3CCOCC3)c3cn[nH]c3n2)cn1)Nc1cc(C(F)(F)F)ccc1F` [Example 21]: the IC50 on human Tie2 came to 6.03 µM.

As for `O=C(Nc1ncc(-c2cc(C(=O)NCCCN3CCOCC3)c3cn[nH]c3n2)s1)Nc1cc(C(F)(F)F)ccc1F` [Example 22], the figures for the IC50 on human KDR enzyme and on human Tie2 were 0.511 µM and 0.004 µM, respectively.

`O=C(Nc1ncc(-c2cc(C(=O)NCCN3CCNCC3)c3cn[nH]c3n2)s1)Nc1cc(C(F)(F)F)ccc1F` [Example 23]: the values for the IC50 against human KDR enzyme and on human Tie2 were 0.527 µM and 0.006 µM, respectively.

`O=C(Nc1ncc(-c2cc(C(=O)NCCC3CCNCC3)c3cn[nH]c3n2)s1)Nc1cc(C(F)(F)F)ccc1F` [Example 24]: the IC50 turned out to be 0.133 µM against human KDR enzyme and 0.002 µM on human Tie2.

For the compound `O=C(Nc1ncc(-c2cc(C(=O)NCCO)c3cn[nH]c3n2)s1)Nc1cc(C(F)(F)F)ccc1F` [Example 26], the IC50 was 0.387 µM on human KDR enzyme and 0.003 µM at human Tie2.

Consider `O=C(Nc1ncc(-c2cc(C(=O)NCc3ccncc3)c3cn[nH]c3n2)s1)Nc1cc(C(F)(F)F)ccc1F` [Example 28], for which the IC50 at human KDR enzyme was found to be 4.66 µM; at human Tie2, 0.105 µM.

As to `O=C(Nc1ncc(-c2cc(C(=O)NCc3ccccn3)c3cn[nH]c3n2)s1)Nc1cc(C(F)(F)F)ccc1F` [Example 29], the IC50 on human KDR enzyme was found to be 0.16 µM; on human Tie2, 0.003 µM.

Regarding `O=C(Nc1ncc(-c2cc(C(=O)NCCCN3CCCC3CO)c3cn[nH]c3n2)s1)Nc1cc(C(F)(F)F)ccc1F` (stereo not shown) [Example 31], the results for the IC50 at human KDR enzyme and on human Tie2 were 0.647 µM and 0.009 µM, respectively.

Consider `CNC(=O)c1cc(-c2cccc(NC(=O)Nc3cc(C(F)(F)F)ccc3F)c2)nc2[nH]ncc12` [Example 33], for which the IC50 on human Tie2 is 2.7 µM.

For `O=C(Nc1cccc(-c2cc(C(=O)NCCN3CCOCC3)c3cn[nH]c3n2)c1)Nc1cc(C(F)(F)F)ccc1F` [Example 34], at human Tie2, the IC50 is 4.14 µM.

Regarding `O=C(Nc1ccc(C(F)(F)F)cc1)Nc1ncc(-c2cc(C(=O)NCCN3CCOCC3)c3cn[nH]c3n2)s1` [Example 55], the IC50 came to 3.54 µM at human KDR enzyme and 0.088 µM on human Tie2.

For the origin of these results see patent US8058290B2, “7-substituted aza-indazoles, compositions containing same, production method and use thereof” (Aventis Pharma S.A., priority 2005, dated 2011).
